Patent US11377442B2, “Small molecule agonists and antagonists of NR2F6 activity” (ZANDER THERAPEUTICS, INC., priority 2016, dated 2022)
Read-outs that look alike come from different tables or passages of the source.

Assays:
Type in all cases: cell-based
Renilla = Renilla signal in NR2F6 agonist screening, cmpd/DMSO; details: Renilla, F4
NR2F6 = target: T1, NR2F6 (Homo sapiens, UniProt P10588); test: NR2F6 agonist screening, Firefly signal cmpd/DMSO
T1 construct: expressed in transfected cells; also transient transfection
T1 sequence (P10588 1-404): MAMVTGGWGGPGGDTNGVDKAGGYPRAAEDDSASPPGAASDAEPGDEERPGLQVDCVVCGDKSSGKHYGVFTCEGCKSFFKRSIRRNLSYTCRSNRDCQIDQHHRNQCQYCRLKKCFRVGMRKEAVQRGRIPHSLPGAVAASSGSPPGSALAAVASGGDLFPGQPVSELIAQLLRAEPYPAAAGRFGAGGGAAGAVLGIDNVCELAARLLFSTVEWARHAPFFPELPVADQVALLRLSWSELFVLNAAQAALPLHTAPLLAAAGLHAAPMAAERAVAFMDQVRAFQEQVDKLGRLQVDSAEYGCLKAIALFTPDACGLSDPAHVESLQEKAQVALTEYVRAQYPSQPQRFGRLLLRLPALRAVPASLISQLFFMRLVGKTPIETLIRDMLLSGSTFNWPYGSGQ

HEK293 pGL4 = test: Firefly_pGL signal, cmpd/DMSO (pGL4 control cells); details: Homo sapiens
NR2F6 LBD = target: T2, NR2F6 LBD (Homo sapiens, UniProt P10588); test: NR2F6 LBD transient transfection; details: LBD
T2 construct: expressed in transfected cells
T2 sequence (P10588 165-393 limits assumed): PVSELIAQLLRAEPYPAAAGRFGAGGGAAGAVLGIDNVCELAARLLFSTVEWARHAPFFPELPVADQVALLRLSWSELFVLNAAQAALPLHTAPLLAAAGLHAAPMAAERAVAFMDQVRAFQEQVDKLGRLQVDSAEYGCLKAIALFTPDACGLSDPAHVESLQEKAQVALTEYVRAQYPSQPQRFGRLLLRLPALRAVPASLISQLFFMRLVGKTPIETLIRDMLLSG
Method in brief: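 LBD-transfected cells treated at 40, 10, 2 and 0.5 μM (4 replicates); cytotoxicity measured in parallel, normalized to DMSO (0%) and zero signal (100%). Higher concentrations excluded where signal loss reflected toxicity.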

[1] = read-out: Renilla, F4, cmpd/DMSO (mean)
[2] = 1% FBS, read-out: Renilla, F4, 1% FBS, cmpd/DMSO (mean)
[3] = 10% FBS, read-out: Renilla, F4, 10% FBS, cmpd/DMSO (mean)
[4] = HEK293, 0.5 uM, pGL4, read-out: Firefly pGL4, cmpd/DMSO (mean)
[5] = HEK293, 2 uM, pGL4, read-out: Firefly pGL4, cmpd/DMSO (mean)
[6] = HEK293, 10 uM, pGL4, read-out: Firefly pGL4, cmpd/DMSO (mean)
[7] = HEK293, 40 uM, pGL4, read-out: Firefly pGL4, cmpd/DMSO (mean)
[8] = HEK293, pGL4, 1% FBS, 0.5 uM, read-out: Firefly, pGL4, 1% FBS, cmpd/DMSO (mean)
[9] = HEK293, pGL4, 1% FBS, 2 uM, read-out: Firefly, pGL4, 1% FBS, cmpd/DMSO (mean)
[10] = HEK293, pGL4, 1% FBS, 10 uM, read-out: Firefly, pGL4, 1% FBS, cmpd/DMSO (mean)
[11] = HEK293, pGL4, 1% FBS, 40 uM, read-out: Firefly, pGL4, 1% FBS, cmpd/DMSO (mean)
[12] = HEK293, pGL4, 10% FBS, 0.5 uM, read-out: Firefly, pGL4, 10% FBS, cmpd/DMSO (mean)
[13] = HEK293, pGL4, 10% FBS, 2 uM, read-out: Firefly, pGL4, 10% FBS, cmpd/DMSO (mean)
[14] = HEK293, pGL4, 10% FBS, 10 uM, read-out: Firefly, pGL4, 10% FBS, cmpd/DMSO (mean)
[15] = HEK293, pGL4, 10% FBS, 40 uM, read-out: Firefly, pGL4, 10% FBS, cmpd/DMSO (mean)

CC(C)N[C@H]1CS(=O)(=O)C[C@@H]1S(=O)(=O)c1ccc(Cl)cc1 [Compound D118]
fold induction at 0.5 µM (Renilla; [1]): 1.1 | fold induction at 2 µM (Renilla; [1]): 1.3 | fold induction at 10 µM (Renilla; [1]): 1.7 | fold induction at 40 µM (Renilla; [1]): 1.9 | fold induction at 0.5 µM (Renilla; [2]): 1 | fold induction at 2 µM (Renilla; [2]): 1.1 | fold induction at 10 µM (Renilla; [2]): 1.6 | fold induction at 40 µM (Renilla; [2]): 2.3 | fold induction at 0.5 µM (Renilla; [3]): 1.2 | fold induction at 2 µM (Renilla; [3]): 1.5 | fold induction at 10 µM (Renilla; [3]): 2.5 | fold induction at 40 µM (Renilla; [3]): 5.2 | Firefly F4, cmpd/DMSO (mean) (NR2F6; 0.5 uM): 1.6 | Firefly F4, cmpd/DMSO (mean) (NR2F6; 2 uM): 1.6 | Firefly F4, cmpd/DMSO (mean) (NR2F6; 10 uM): 6.2 | Firefly F4, cmpd/DMSO (mean) (NR2F6; 40 uM): 2.4 | F4, Firefly/Renilla for S/B(F4) > 3 (NR2F6; 1% FBS, 10 uM): 3.2 | Firefly, F4/pGL4 for S/B(F4) > 3 (NR2F6; 1% FBS, 10 uM): 2.5 | F4, Firefly/Renilla for S/B(F4) > 3 (NR2F6; 10% FBS, 10 uM): 2.1 | Firefly, F4/pGL4 for S/B(F4) > 3 (NR2F6; 10% FBS, 10 uM): 1.8 | F4, Firefly/Renilla for S/B(F4) > 3 (NR2F6; 10% FBS, 40 uM): 2.8 | Firefly, F4/pGL4 for S/B(F4) > 3 (NR2F6; 10% FBS, 40 uM): 1.8 | Firefly, F4, 1% FBS, cmpd/DMSO (mean) (NR2F6; 1% FBS, 0.5 uM): 1.1 | Firefly, F4, 1% FBS, cmpd/DMSO (mean) (NR2F6; 1% FBS, 2 uM): 1.4 | Firefly, F4, 1% FBS, cmpd/DMSO (mean) (NR2F6; 1% FBS, 10 uM): 5.2 | Firefly, F4, 1% FBS, cmpd/DMSO (mean) (NR2F6; 1% FBS, 40 uM): 0.5 | Firefly, F4, 10% FBS, cmpd/DMSO (mean) (NR2F6; 10% FBS, 0.5 uM): 1.2 | Firefly, F4, 10% FBS, cmpd/DMSO (mean) (NR2F6; 10% FBS, 2 uM): 1.3 | Firefly, F4, 10% FBS, cmpd/DMSO (mean) (NR2F6; 10% FBS, 10 uM): 5.1 | Firefly, F4, 10% FBS, cmpd/DMSO (mean) (NR2F6; 10% FBS, 40 uM): 15 | fold induction at 0.5 µM (HEK293 pGL4; [4]): 1.2 | fold induction at 2 µM (HEK293 pGL4; [5]): 1.5 | fold induction at 10 µM (HEK293 pGL4; [6]): 4.8 | fold induction at 40 µM (HEK293 pGL4; [7]): 0.4 | fold induction at 0.5 µM (HEK293 pGL4; [8]): 0.9 | fold induction at 2 µM (HEK293 pGL4; [9]): 1.2 | fold induction at 10 µM (HEK293 pGL4; [10]): 2.1 | fold induction at 40 µM (HEK293 pGL4; [11]): 0.9 | fold induction at 0.5 µM (HEK293 pGL4; [12]): 1.2 | fold induction at 2 µM (HEK293 pGL4; [13]): 1.2 | fold induction at 10 µM (HEK293 pGL4; [14]): 2.9 | fold induction at 40 µM (HEK293 pGL4; [15]): 8.1 | Firefly LBD, cmpd/DMSO (mean) (NR2F6 LBD; 0.5 uM): 1.2 | Firefly LBD, cmpd/DMSO (mean) (NR2F6 LBD; 2 uM): 1.8 | Firefly LBD, cmpd/DMSO (mean) (NR2F6 LBD; 10 uM): 3.8 | Firefly LBD, cmpd/DMSO (mean) (NR2F6 LBD; 40 uM): 0.4

CCC(C)N[C@H]1CS(=O)(=O)C[C@@H]1S(=O)(=O)c1ccc(Cl)cc1 (some centres unmarked) [Compound D121]
fold induction at 0.5 µM (Renilla; [1]): 1.2 | fold induction at 2 µM (Renilla; [1]): 1.1 | fold induction at 10 µM (Renilla; [1]): 1.5 | fold induction at 40 µM (Renilla; [1]): 1.7 | fold induction at 0.5 µM (Renilla; [2]): 1.1 | fold induction at 2 µM (Renilla; [2]): 1.4 | fold induction at 10 µM (Renilla; [2]): 1.7 | fold induction at 40 µM (Renilla; [2]): 1.3 | fold induction at 0.5 µM (Renilla; [3]): 1 | fold induction at 2 µM (Renilla; [3]): 1.1 | fold induction at 10 µM (Renilla; [3]): 1.4 | fold induction at 40 µM (Renilla; [3]): 2.6 | Firefly F4, cmpd/DMSO (mean) (NR2F6; 0.5 uM): 0.9 | Firefly F4, cmpd/DMSO (mean) (NR2F6; 2 uM): 1.9 | Firefly F4, cmpd/DMSO (mean) (NR2F6; 10 uM): 4.9 | Firefly F4, cmpd/DMSO (mean) (NR2F6; 40 uM): 1.9 | F4, Firefly/Renilla for S/B(F4) > 3 (NR2F6; 1% FBS, 10 uM): 2.3 | Firefly, F4/pGL4 for S/B(F4) > 3 (NR2F6; 1% FBS, 10 uM): 1.2 | F4, Firefly/Renilla for S/B(F4) > 3 (NR2F6; 10% FBS, 10 uM): 2.4 | Firefly, F4/pGL4 for S/B(F4) > 3 (NR2F6; 10% FBS, 10 uM): 1.4 | F4, Firefly/Renilla for S/B(F4) > 3 (NR2F6; 10% FBS, 40 uM): 1.3 | Firefly, F4/pGL4 for S/B(F4) > 3 (NR2F6; 10% FBS, 40 uM): 2.9 | Firefly, F4, 1% FBS, cmpd/DMSO (mean) (NR2F6; 1% FBS, 0.5 uM): 1.5 | Firefly, F4, 1% FBS, cmpd/DMSO (mean) (NR2F6; 1% FBS, 2 uM): 1.2 | Firefly, F4, 1% FBS, cmpd/DMSO (mean) (NR2F6; 1% FBS, 10 uM): 3.9 | Firefly, F4, 1% FBS, cmpd/DMSO (mean) (NR2F6; 1% FBS, 40 uM): 0.1 | Firefly, F4, 10% FBS, cmpd/DMSO (mean) (NR2F6; 10% FBS, 0.5 uM): 1.2 | Firefly, F4, 10% FBS, cmpd/DMSO (mean) (NR2F6; 10% FBS, 2 uM): 1.4 | Firefly, F4, 10% FBS, cmpd/DMSO (mean) (NR2F6; 10% FBS, 10 uM): 3.3 | Firefly, F4, 10% FBS, cmpd/DMSO (mean) (NR2F6; 10% FBS, 40 uM): 3.4 | fold induction at 0.5 µM (HEK293 pGL4; [4]): 1.4 | fold induction at 2 µM (HEK293 pGL4; [5]): 1.6 | fold induction at 10 µM (HEK293 pGL4; [6]): 3.9 | fold induction at 40 µM (HEK293 pGL4; [7]): 0.7 | fold induction at 0.5 µM (HEK293 pGL4; [8]): 1.1 | fold induction at 2 µM (HEK293 pGL4; [9]): 1.1 | fold induction at 10 µM (HEK293 pGL4; [10]): 3.2 | fold induction at 40 µM (HEK293 pGL4; [11]): 0.8 | fold induction at 0.5 µM (HEK293 pGL4; [12]): 1.1 | fold induction at 2 µM (HEK293 pGL4; [13]): 1.4 | fold induction at 10 µM (HEK293 pGL4; [14]): 2.4 | fold induction at 40 µM (HEK293 pGL4; [15]): 1.2 | Firefly LBD, cmpd/DMSO (mean) (NR2F6 LBD; 0.5 uM): 1.0 | Firefly LBD, cmpd/DMSO (mean) (NR2F6 LBD; 2 uM): 1.5 | Firefly LBD, cmpd/DMSO (mean) (NR2F6 LBD; 10 uM): 3.6 | Firefly LBD, cmpd/DMSO (mean) (NR2F6 LBD; 40 uM): 0.7
